Reference: patent publication US20200079757A1, “COMPOUNDS FOR THE TREATMENT OF RESPIRATORY DISEASES” (THE UNIVERSITY OF MELBOURNE, priority 2017, published 2020)

Columns and labels:
[1] = tested on: PAI-1 gene expression in BEAS-2B cells; assay: TNF-α and TGF-β induced PAI-1 gene expression in BEAS-2B cells (RT-qPCR); assay type: cell-based; details: agent 10 μM
Method: The primary assay for the activity of the novel CK1δ/ε inhibitors is the modulation of gene expression in the airway epithelial cell line, the BEAS-2B cells. The assay is conducted under several conditions. Generally, TGF-β or TNF-α is used to elicit fibrogenic or inflammatory genes, respectively. The agents are added at a concentration of 10 μM, or at the indicated concentrations for a period of 30 min prior to the addition of TGF-β/TNF-α which are incubated for a further 20 hours before the addition, in some experiments of the glucocorticoid, dexamethasone (Dex, 30 nM) for the final 4 hours of the experiment, prior to harvest of cellular RNA to measure by RT-qPCR the levels of mRNA of marker genes for inflammation and fibrogenesis. The inhaled corticosteroid (ICS), budesonide is also used in some experiments. Furthermore, the supernatants are harvested at the end of the incubation periods in selected experiments to measure the levels of CSF-2 or IL-8 by ELISA as described in (Tran et al. (2005) British Journal of Pharmacology, 145, 123-131). Prior to experimentation, BEAS-2B and A549 cells were incubated in serum-free DMEM containing 0.25% bovine serum albumin (BSA) and insulin-transferrin-selenium—containing supplement (Monomed A; CSL, Parkville, Melbourne, Australia). Where indicated, cells were treated with one of the series of synthesised compounds (0.3-10 μM) prior to exposure to 100 pM TGF-β1 (R&D Systems, Minneapolis, Minn.) or 300 pM bFGF (Promega, Madison, Wis.). Total RNA was extracted from cultured cells using illustra RNAspin Mini RNA Isolation Kit (GE Healthcare). RNA extracts were reverse-transcribed into cDNA using High-Capacity RNA-to-cDNA Kit (Applied Biosystems). Real-time PCR was then performed using a QuantStudio 6 Flex Real-Time PCR System using iTaq Universal SYBR green supermix and the following thermal protocol: 50° C. (2 min), 95° C. (10 min), then 40 cycles of 95° C. (15 sec), 60° C. (1 min). The threshold cycle (CT) values determined for target genes were normalized against those obtained for 18S ribosomal RNA (18S rRNA), which was included as internal control. The generation of specific PCR products was confirmed by dissociation curve analysis. In the same experiment as described in FIG. 1, the expression of the fibrogen plasminogen activator inhibitor-1 was measured (see FIG. 2). The levels of this gene are increased by both TGF-β and by Dex and they synergise when added together. The CK1 inhibitors concentration-dependently reduce the effects of each of the stimuli and further reduce baseline expression. Their potency in this effect is similar, regardless of the condition being considered. In a separate experiment BEAS-2B cells were exposed to TNF-α with(out) 30 min pretreatment with either SS9-010 or PF670462 (1-10 μM). RNA was then extracted and analyzed by RT-qPCR. Each agent inhibited TNFa stimulated PAI-1 expression with similar potency and maxima (see FIG. 3). Data are presented as mean±SD for n=1 (three technical replicates).

[2] = tested on: Col 1A gene expression in BEAS-2B cells; assay: TNFα and TGFβ induced Col 1A gene expression in BEAS-2B cells (RT-qPCR); assay type: cell-based; details: agent 10 μM
Method: The primary assay for the activity of the novel CK1δ/ε inhibitors is the modulation of gene expression in the airway epithelial cell line, the BEAS-2B cells. The assay is conducted under several conditions. Generally, TGF-β or TNF-α is used to elicit fibrogenic or inflammatory genes, respectively. The agents are added at a concentration of 10 μM, or at the indicated concentrations for a period of 30 min prior to the addition of TGF-β/TNF-α which are incubated for a further 20 hours before the addition, in some experiments of the glucocorticoid, dexamethasone (Dex, 30 nM) for the final 4 hours of the experiment, prior to harvest of cellular RNA to measure by RT-qPCR the levels of mRNA of marker genes for inflammation and fibrogenesis. The inhaled corticosteroid (ICS), budesonide is also used in some experiments. Furthermore, the supernatants are harvested at the end of the incubation periods in selected experiments to measure the levels of CSF-2 or IL-8 by ELISA as described in (Tran et al. (2005) British Journal of Pharmacology, 145, 123-131).
Prior to experimentation, BEAS-2B and A549 cells were incubated in serum-free DMEM containing 0.25% bovine serum albumin (BSA) and insulin-transferrin-selenium—containing supplement (Monomed A; CSL, Parkville, Melbourne, Australia). Where indicated, cells were treated with one of the series of synthesised compounds (0.3-10 μM) prior to exposure to 100 pM TGF-β1 (R&D Systems, Minneapolis, Minn.) or 300 pM bFGF (Promega, Madison, Wis.).
Total RNA was extracted from cultured cells using illustra RNAspin Mini RNA Isolation Kit (GE Healthcare). RNA extracts were reverse-transcribed into cDNA using High-Capacity RNA-to-cDNA Kit (Applied Biosystems). Real-time PCR was then performed using a QuantStudio 6 Flex Real-Time PCR System using iTaq Universal SYBR green supermix and the following thermal protocol: 50° C. (2 min), 95° C. (10 min), then 40 cycles of 95° C. (15 sec), 60° C. (1 min). The threshold cycle (CT) values determined for target genes were normalized against those obtained for 18S ribosomal RNA (18S rRNA), which was included as internal control. The generation of specific PCR products was confirmed by dissociation curve analysis.

[3] = tested on: SCNN1A gene expression in BEAS-2B cells; assay: TGF-β-induced suppression of dexamethasone-induced SCNN1A gene expression in BEAS-2B cells; assay type: cell-based; details: BEAS-2B, agent 10 μM
Method: The primary assay for the activity of the novel CK1δ/ε inhibitors is the modulation of gene expression in the airway epithelial cell line, the BEAS-2B cells. The assay is conducted under several conditions. Generally, TGF-β or TNF-α is used to elicit fibrogenic or inflammatory genes, respectively. The agents are added at a concentration of 10 μM, or at the indicated concentrations for a period of 30 min prior to the addition of TGF-β/TNF-α which are incubated for a further 20 hours before the addition, in some experiments of the glucocorticoid, dexamethasone (Dex, 30 nM) for the final 4 hours of the experiment, prior to harvest of cellular RNA to measure by RT-qPCR the levels of mRNA of marker genes for inflammation and fibrogenesis. The inhaled corticosteroid (ICS), budesonide is also used in some experiments. Furthermore, the supernatants are harvested at the end of the incubation periods in selected experiments to measure the levels of CSF-2 or IL-8 by ELISA as described in (Tran et al. (2005) British Journal of Pharmacology, 145, 123-131). Prior to experimentation, BEAS-2B and A549 cells were incubated in serum-free DMEM containing 0.25% bovine serum albumin (BSA) and insulin-transferrin-selenium—containing supplement (Monomed A; CSL, Parkville, Melbourne, Australia). Where indicated, cells were treated with one of the series of synthesised compounds (0.3-10 μM) prior to exposure to 100 pM TGF-β1 (R&D Systems, Minneapolis, Minn.) or 300 pM bFGF (Promega, Madison, Wis.). Total RNA was extracted from cultured cells using illustra RNAspin Mini RNA Isolation Kit (GE Healthcare). RNA extracts were reverse-transcribed into cDNA using High-Capacity RNA-to-cDNA Kit (Applied Biosystems). Real-time PCR was then performed using a QuantStudio 6 Flex Real-Time PCR System using iTaq Universal SYBR green supermix and the following thermal protocol: 50° C. (2 min), 95° C. (10 min), then 40 cycles of 95° C. (15 sec), 60° C. (1 min). The threshold cycle (CT) values determined for target genes were normalized against those obtained for 18S ribosomal RNA (18S rRNA), which was included as internal control. The generation of specific PCR products was confirmed by dissociation curve analysis. In FIG. 1, the effects of SS9-010 are contrasted with those of PF670462 in an assay in BEAS-B cells measuring the induction of the glucocorticoid-regulated gene, SCNN1A encoding the protein epithelial sodium channel alpha subunit. Serum-starved BEAS-2B cells were treated with CK1δ/ε inhibitor PF670462 (1, 3, 10 μM) or SS9-010 (1, 3, 10 μM) 30 min prior to TGF-β1 (40 pM) for 24 hours, then stimulated with dexamethasone (30 nM) for 4 hours. RNA was then extracted and analyzed by RT-qPCR. Data are presented as mean±SEM for n=4 independent experiments. The potency of PF670462 and SS9-010 were similar.

Structure (SMILES)	PAI-1 mRNA level, TGF-β [1]	PAI-1 mRNA level, TNF-α (n = 2) [1]	PAI-1 mRNA level, vehicle (no stimulus) [1]	Col1A mRNA level, TGF-β [2]	Col1A mRNA level, TNF-α (n = 2) [2]	Col1A mRNA level, vehicle (no stimulus) [2]	SCNN1A mRNA level, Dex [3]	SCNN1A mRNA level, TGF-β [3]	SCNN1A mRNA level, TGF-β/Dex [3]	SCNN1A mRNA level, vehicle (no stimulus) [3]	melting point
Nc1nccc(-c2c(-c3ccc(F)cc3)ncn2C2CCN(CCCCc3ccccc3)CC2)n1 [SS8-070, 4-(4-(4-Fluorophenyl)-1-[1-(4-phenylbutyl)piperidin-4-yl)-1H-imidazol-5-yl)pyrimidin-2-amine]	6.57 (n = 2) fold control	0.79 fold control	0.41 fold control	8.52 (n = 2) fold control	0.88 fold control	1.17 fold control	3.79 fold control	0.42 fold control	2.15 fold control	1.63 fold control	–
Nc1nccc(-c2c(-c3ccc(F)cc3)ncn2C23CC4CC(CC(C4)C2)C3)n1 [SS8-122, 4-(Adamantan-1-yl-4-(4-fluorophenyl)-1H-imidazol-5-yl)pyrimidin-2-amine]	–	2.76 fold control	1.45 fold control	8.07 fold control	1.56 fold control	1.39 fold control	4.26 fold control	0.15 fold control	1.67 fold control	0.86 fold control	–
Nc1nccc(-c2c(-c3ccc(F)cc3)ncn2C2CCC2)n1 [ZH-62, 4-(1-Cyclobutyl-4-(4-fluorophenyl)-1H-imidazol-5-yl)pyrimidin-2-amine]	–	–	–	–	–	–	–	–	–	–	229 to 231 °C
Cc1ccc(-c2ncn(C3CCCCC3)c2-c2ccnc(N)n2)cc1 [SS8-186]	6.58 ± 1.04 fold control	1.54 fold control	0.75 ± 0.07 fold control	3.14 ± 0.20 fold control	0.56 fold control	0.50 ± 0.12 fold control	3.06 ± 0.34 fold control	0.42 ± 0.06 fold control	1.84 ± 0.25 fold control	1.36 ± 0.17 fold control	–
CCCCN1CCC(n2cnc(-c3ccc(F)cc3)c2-c2ccnc(N)n2)CC1 [SS9-074, 4-(1-(1-Butylpiperidin-4-yl)-4-(4-fluorophenyl)-1H-imidazol-5-yl)pyrimidin-2-amine]	12.3 (n = 2) fold control	1.83 fold control	0.68 fold control	12.2 (n = 2) fold control	2.14 fold control	1.61 fold control	3.46 fold control	0.36 fold control	3.27 fold control	1.22 fold control	–
CCn1cnc(-c2ccc(F)cc2)c1-c1ccnc(N)n1 [ZH-6, 4-(1-(Ethyl)-4-(4-fluorophenyl)-1H-imidazol-5-yl)pyrimidin-2-amine]	–	–	–	–	–	–	–	–	–	–	204 to 212 °C
OCCNc1nccc(-c2c(-c3ccc(F)cc3)ncn2C2CCCCC2)n1 [compound 84, 2-((4-(1-Cyclohexyl-4-(4-fluorophenyl)-1H-imidazol-5-yl)pyrimidin-2-yl)amino)ethan-1-ol]	–	–	–	–	–	–	–	–	–	–	180 to 184 °C
Fc1ccc(-c2ncn(C3CCCCC3)c2-c2ccnc(NC3CCC3)n2)cc1 [compound 81, N-Cyclobutyl-4-(1-cyclohexyl-4-(4-fluorophenyl)-1H-imidazol-5-yl)pyrimidin-2-amine]	–	–	–	–	–	–	–	–	–	–	185 to 189 °C
